From paper PMC3729217 (Chembiochem : a European journal of chemical biology, 2010)

What was measured:
PKCε-EGFP = target: T1, PKCε-EGFP (Rattus norvegicus, UniProt P09216); test: Plasma membrane translocation of PKCε-EGFP in transfected MCF-7 cells; type: cell-based; details: MCF-7 cells expressing PKCε-EGFP, stimulated with 40 μM, 37°C
T1 sequence (P09216 1-737): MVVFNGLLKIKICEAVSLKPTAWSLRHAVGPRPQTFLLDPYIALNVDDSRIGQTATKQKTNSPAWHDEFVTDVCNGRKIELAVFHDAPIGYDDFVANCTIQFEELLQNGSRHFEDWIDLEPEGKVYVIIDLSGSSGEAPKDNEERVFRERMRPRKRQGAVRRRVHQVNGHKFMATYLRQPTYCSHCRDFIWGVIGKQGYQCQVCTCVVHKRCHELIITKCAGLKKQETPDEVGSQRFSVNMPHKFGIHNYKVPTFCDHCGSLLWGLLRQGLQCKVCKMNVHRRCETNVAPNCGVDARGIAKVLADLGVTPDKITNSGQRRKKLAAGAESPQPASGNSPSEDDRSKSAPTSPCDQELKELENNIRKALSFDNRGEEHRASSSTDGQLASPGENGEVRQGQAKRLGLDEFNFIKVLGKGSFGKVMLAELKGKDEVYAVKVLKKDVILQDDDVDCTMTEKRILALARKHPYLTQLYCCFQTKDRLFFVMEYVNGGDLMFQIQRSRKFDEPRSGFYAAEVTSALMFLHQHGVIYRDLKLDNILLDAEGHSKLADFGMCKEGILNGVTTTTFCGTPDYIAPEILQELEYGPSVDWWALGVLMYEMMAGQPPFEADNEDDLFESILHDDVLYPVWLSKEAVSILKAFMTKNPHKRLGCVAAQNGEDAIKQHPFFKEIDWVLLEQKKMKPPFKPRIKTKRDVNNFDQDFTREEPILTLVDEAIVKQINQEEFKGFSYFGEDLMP

PKCδ-ECFP = PKCδ-ECFP (Homo sapiens, UniProt Q05655); test: Plasma membrane translocation of PKCδ-ECFP in transfected MCF-7 cells; type: cell-based, rat; details: MCF-7 cells expressing PKCδ-ECFP, stimulated with 40 μM, 37°C
PKCα-EGFP = PKCα-EGFP (Rattus norvegicus, UniProt P05696); test: Plasma membrane translocation of PKCα-EGFP in transfected MCF-7 cells; type: cell-based; details: MCF-7 cells expressing PKCα-EGFP, stimulated with 40 μM, 37°C

Chain of PKCδ-ECFP (Q05655 whole entry): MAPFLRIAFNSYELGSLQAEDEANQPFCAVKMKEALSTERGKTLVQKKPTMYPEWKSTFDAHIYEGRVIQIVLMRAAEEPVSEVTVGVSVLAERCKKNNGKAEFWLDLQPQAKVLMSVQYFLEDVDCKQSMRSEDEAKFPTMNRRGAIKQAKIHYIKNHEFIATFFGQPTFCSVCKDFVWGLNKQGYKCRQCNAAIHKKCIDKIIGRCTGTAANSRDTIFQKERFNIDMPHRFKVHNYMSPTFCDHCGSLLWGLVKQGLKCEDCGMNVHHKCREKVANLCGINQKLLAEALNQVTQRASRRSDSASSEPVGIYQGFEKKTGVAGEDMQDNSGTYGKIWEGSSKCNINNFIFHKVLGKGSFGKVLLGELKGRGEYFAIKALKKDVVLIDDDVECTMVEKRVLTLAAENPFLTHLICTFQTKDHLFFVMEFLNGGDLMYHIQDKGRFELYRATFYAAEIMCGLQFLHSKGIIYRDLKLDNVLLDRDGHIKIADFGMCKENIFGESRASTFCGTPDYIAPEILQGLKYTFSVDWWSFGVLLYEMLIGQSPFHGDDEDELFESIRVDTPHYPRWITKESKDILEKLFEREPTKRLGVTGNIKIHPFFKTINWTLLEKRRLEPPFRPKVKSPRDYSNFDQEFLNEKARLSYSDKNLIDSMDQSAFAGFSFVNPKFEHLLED

CCCCCCCCCCCCCC(=O)O[C@@H]1[C@@H](C)[C@@]2(O)[C@@H](C=C(CO)C[C@]3(O)C(=O)C(C)=C[C@@H]23)[C@@H]2C(C)(C)[C@]12OC(C)=O [PMA, phorbol 12-myristate 13-acetate]
t1/2, half-time of plasma membrane localization (PKCε-EGFP): 31 ± 18 s | t1/2, half-time of plasma membrane localization (PKCδ-ECFP): 47 ± 22 s | t1/2, half-time of plasma membrane localization (PKCα-EGFP): 547 ± 192 s
